Measurements reported in patent US20200206198A1, “CFTR CHANNEL ACTIVATOR FOR USE IN THE TREATMENT AND/OR PREVENTION OF GLUTEN SENSITIVITY CONDITIONS” (priority 2017, published 2020).

Columns and labels:
CFTR = target: T1, CFTR (Homo sapiens, UniProt P13569); assay: Co-immunoprecipitation of biotinylated peptides with CFTR in Caco-2 cells; type: cell-based
T1 construct: Immunoprecipitations of endogenous proteins were performed on 500 μg of lysates from Caco-2 cells; host or cells: Caco-2, T84
Description: Human colon adenocarcinoma-derived Caco-2 and T84 cells were obtained from the ATCC. Cells were maintained in T25 flask in Modified Eagle Medium (MEM) for Caco-2, or Ham's F12+DMEM (1:1) for T84, supplemented with 10% fetal bovine serum (FBS), 2 mM Glutamine+1% Non Essential Amino Acids (NEAA) and the antibiotics penicillin\streptomycin (100 units/ml) (all reagents from Lonza) (Luciani, A., et al. 2010. Cells were grown in Transwells (Corning, 3470 or 3460) under the normal condition (Luciani, A., et al. 2012). Briefly, 8×10^4 or 5×10^5 cells were seeded in 6.5-mm diameter or 12-mm diameter, respectively, and grown until the RT reached 800 to 1,200 Ω·cm2. Transwells with a pore size of 0.4 μm were used. Medium in both the apical and basolateral chambers was changed every other day. […] Cells were also treated with 50 or 100 μg/ml of P57-68 or PGAV peptides for 3 h. Caco-2 or T84 cells were also treated with: CFTR potentiators VX-770 (10 μM) or VX-532 (20 μM) (Selleck chemicals) or Genistein (10 μM) (Sigma-Aldrich) or in presence or absence of CFTR inhibitor172 (CFTRinh172, 20 μM) or 3-methyl-adenine (3-MA, 20 μM) (Calbiochem), Z-DON (20 nM, Zedira) or BAPTA-AM (10 μM, Calbiochem).
For detection of complex with biotnylated-P31-43 or immune-complex of glutamime-lysine bonds, the beads were resolved in non-reducing and non-denaturating conditions, and then blotted with Streptavidin-HRP (Sigma 52438) 1:3000 or anti-biotin (Abcam ab2103) 1:2500 and anti-isopeptide (Abcam 422) 1:1000.
The separation of endosomal fractions was performed as described^9 from treated and untreated cells. Protein of endosomal fraction were resolved by SDS-Page and blotted with primary antibodies against Rab-5(Abcam 18211) 1:500, Rab-7(Abcam 77993) 1:500, EEA-1 (Abcam 2900) 1:500, TG2 or CFTR. EEA-1 was used as early endosome marker. For detection of complex with biotnylated-P31-43, the beads were resolved in non-reducing and non-denaturating conditions, and then blotted with Streptavidin-HRP (Sigma S2438) 1:3000 or anti-biotin (Abcam ab2103) 1:2500.

Caco-2 cells = assay: Innate immune activation in Caco-2 cells (NLRP3, caspase-1, IL-15, NF-κB p65); type: cell-based, human
Description: Human colon adenocarcinoma-derived Caco-2 and T84 cells were obtained from the ATCC. Cells were maintained in T25 flask in Modified Eagle Medium (MEM) for Caco-2, or Ham's F12+DMEM (1:1) for T84, supplemented with 10% fetal bovine serum (FBS), 2 mM Glutamine+1% Non Essential Amino Acids (NEAA) and the antibiotics penicillin\streptomycin (100 units/ml) (all reagents from Lonza) (Luciani, A., et al. 2010. Cells were grown in Transwells (Corning, 3470 or 3460) under the normal condition (Luciani, A., et al. 2012). Briefly, 8×10^4 or 5×10^5 cells were seeded in 6.5-mm diameter or 12-mm diameter, respectively, and grown until the RT reached 800 to 1,200 Ω·cm2. Transwells with a pore size of 0.4 μm were used. Medium in both the apical and basolateral chambers was changed every other day. Cells were treated with 20 μg/ml of either α-gliadin peptide P31-43 or […]-69 or scrambled PGAV or modified P31-43 either biotin-tagged or not, for different time point (from 1 h short challenge up to 24 h). Cells were also treated with 50 or 100 μg/ml of […]-68 or PGAV peptides for 3 h. Caco-2 or T84 cells were also treated with: CFTR potentiators VX-770 (10 μM) or VX-532 (20 μM) (Selleck chemicals) or Genistein (10 μM) (Sigma-Aldrich) or in presence or absence of CFTR inhibitor172 (CFTRinh172, 20 μM) or 3-methyl-adenine (3-MA, 20 μM) (Calbiochem), Z-DON (20 nM, Zedira) or BAPTA-AM (10 μM, Calbiochem). The whole lysate or membrane fraction proteins of cell lines and mice intestine homogenates were obtained from treated and untreated cells or mice as described. The equal amount of protein were resolved by SDS-PAGE gel and blotted with antibodies against: SQSTM1, (Sigma Aldrich, 108k4767) 1:1000, PPARγ (Santa Cruz Biotechnology, sc7273) 1:500, BECN1 (Abcam, ab58878) 1:1000, CFTR clone M3A7 (Abcam, ab4067) 1:500, phospho-ERK1/2 (php42/44, Cell Signaling Technology, #91101) 1:1000, UVRAG (Santa Cruz Biotechnology sc8215) 1:1000, NHERF-1 (BD, 611161) 1:1000, EZRIN (BD, 610603) 1:1000, hVps34 (SigmaV9764) 1:300, biotin (Abcam, ab1227) 1:2000, PKAr2a (BD, 610625) 1:500, Ubiquitin (Cell Signaling clone P4D1, #3936) 1:1000, CHIP (Calbiochem PC711) 1:500, Caspase-1 p10 (M-20) (Santa Cruz Biotechnology, sc-514) 1:200, NLRP3 (Abcam, ab4207), 1:500, IDO1 (monoclonal; cv152) 1:1000^[80], used as primary antibodies. Normalization was performed by probing the membrane with anti-β-actin (Cell Signaling, #4970) 1:1000, anti-Gapdh (Sigma-Aldrich, G8795) 1:1000 and anti-flottilin (Abcam ab15148) 1:1000 antibodies. Immunoprecipitations of endogenous proteins were performed on 500 μg of lysates from Caco-2 cells. The proteins were incubated for 12-18 h at 4° C. with 10 ug\ml of specific antibody followed by the addition of Protein A/G-agarose beads for 4 h at 4° C. The beads were then washed three times with lysis buffer and Laemmli's sample buffer was added to the samples. The membranes were then blotted with: CFTR clone CF3 (Abcam, ab2784) 1:1000, TG2 (clone CUB7402; NeoMarkers) 1:1000, CHIP (Calbiochem PC711) 1:500, Ubiquitin (Cell Signaling clone P4D1 3936), isopeptide (Abcam 422) 1:1000, PKAR2 (BD 610625) 1:500. For cytoplasmic and nuclear extracts human colorectal carcinoma Caco-2 cells were harvested, washed in cold PBS twice, and centrifuged at 6000 rpm for 5 min in cold room to collect pellets. […] The protein concentrations were measured by Bradford protein assay (Protein Reagent, Bio-Rad). […]

T1 sequence (P13569 whole entry): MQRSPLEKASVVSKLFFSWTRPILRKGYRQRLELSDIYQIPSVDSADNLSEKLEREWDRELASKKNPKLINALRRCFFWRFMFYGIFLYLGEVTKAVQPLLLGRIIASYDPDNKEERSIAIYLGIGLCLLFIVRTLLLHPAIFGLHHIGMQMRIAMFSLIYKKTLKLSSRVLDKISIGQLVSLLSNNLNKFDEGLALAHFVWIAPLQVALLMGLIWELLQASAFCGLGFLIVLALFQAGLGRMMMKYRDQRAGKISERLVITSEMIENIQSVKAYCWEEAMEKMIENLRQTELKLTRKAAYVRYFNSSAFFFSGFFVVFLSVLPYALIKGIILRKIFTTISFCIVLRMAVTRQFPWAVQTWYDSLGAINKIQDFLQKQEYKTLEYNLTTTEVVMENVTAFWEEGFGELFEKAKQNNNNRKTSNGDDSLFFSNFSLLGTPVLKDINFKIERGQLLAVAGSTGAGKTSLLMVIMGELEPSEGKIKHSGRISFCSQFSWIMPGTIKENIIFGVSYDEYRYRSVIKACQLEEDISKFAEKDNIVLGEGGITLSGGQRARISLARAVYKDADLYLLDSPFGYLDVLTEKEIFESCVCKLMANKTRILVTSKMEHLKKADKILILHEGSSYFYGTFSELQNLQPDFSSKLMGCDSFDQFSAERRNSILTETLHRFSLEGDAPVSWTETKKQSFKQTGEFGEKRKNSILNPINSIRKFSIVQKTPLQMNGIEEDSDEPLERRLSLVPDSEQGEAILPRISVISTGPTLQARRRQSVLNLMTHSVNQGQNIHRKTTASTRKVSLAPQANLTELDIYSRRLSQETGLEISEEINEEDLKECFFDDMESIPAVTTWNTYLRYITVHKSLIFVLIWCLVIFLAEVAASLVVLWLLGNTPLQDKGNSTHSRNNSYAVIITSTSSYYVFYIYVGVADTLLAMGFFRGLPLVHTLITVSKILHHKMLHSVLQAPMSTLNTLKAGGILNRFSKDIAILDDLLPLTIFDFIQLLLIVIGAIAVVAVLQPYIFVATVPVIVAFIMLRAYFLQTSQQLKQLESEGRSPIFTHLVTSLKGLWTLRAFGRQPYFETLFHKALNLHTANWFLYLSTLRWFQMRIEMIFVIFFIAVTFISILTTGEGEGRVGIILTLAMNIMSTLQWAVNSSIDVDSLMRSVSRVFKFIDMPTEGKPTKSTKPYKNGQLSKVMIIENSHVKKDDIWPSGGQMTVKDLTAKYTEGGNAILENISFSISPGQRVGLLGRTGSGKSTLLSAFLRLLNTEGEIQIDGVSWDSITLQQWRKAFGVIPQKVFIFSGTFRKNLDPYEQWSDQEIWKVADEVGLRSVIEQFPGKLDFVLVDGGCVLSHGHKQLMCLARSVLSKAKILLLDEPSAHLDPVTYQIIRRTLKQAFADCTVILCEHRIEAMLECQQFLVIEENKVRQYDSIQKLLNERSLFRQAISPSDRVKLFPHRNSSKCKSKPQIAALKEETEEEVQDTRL

Row | Molecule | presence in CFTR immunoprecipitates from early endosomal protein fractions (CFTR) | interaction (co-immunoprecipitation) with CFTR (CFTR; 1 h with biotinylated peptides) | co-immunoprecipitation with CFTR in clathrin+ EEA1− plasma membrane protein fractions (CFTR; after 5 min incubation) | NF-κB p65 translocation into the nucleus (Caco-2 cells; Caco-2 cells after incubation with peptide) | effect on co-immunoprecipitation between P31-43 and CFTR (CFTR) | effect on P31-43-induced NF-κB p65 nuclear translocation (Caco-2 cells; Caco-2 cells) | effect on P31-43-induced NLRP3 expression (Caco-2 cells; Caco-2 cells) | effect on P31-43-induced caspase-1 cleavage (Caco-2 cells; Caco-2 cells) | effect on P31-43-induced production of IL-15 (Caco-2 cells; Caco-2 cells, ELISA, p<0.001)
1 | α-gliadin peptide LGQQQPFPPQQPY (SEQ ID 1), induces an enterocyte stress response (P31-43 sequence of alpha-gliadin) | revealed the presence of biotinylated P31-43 | co-immunoprecipitated with CFTR | co-immunoprecipitated | NF-κB p65 translocation into the nucleus was observed | – | – | – | – | –
2 | CC(C)(C)c1cc(C(C)(C)C)c(NC(=O)c2c[nH]c3ccccc3c2=O)cc1O [VX-770, N-(2,4-di-tert-butyl-5-hydroxyphenyl)-4-oxo-1,4-dihydroquinoline-3-carboxamide] | – | – | – | – | prevented the co-immunoprecipitation between P31-43 and CFTR | suppressed | prevented | prevented | prevented the P31-43-induced production of IL-15
